According to PMC13401508 (Pharmacological research, 2026):

Tests used:
PC3-ML-Luc cells = assay: Combination and survival study, PC3-ML-Luc model; assay type: in vivo; conditions: PC3-ML-Luc in athymic nude mice, day 14, IVMT-Rx-4 30 mg/kg and/or Docetaxel 5 mg/kg 3X a week for two weeks
Procedure: (§1) Both syngeneic (C57BL/6) and athymic nude mice were used for survival studies. Tumor cells (RM1-BM-Luc or PC3-ML-Luc) were injected intracardially in a cohort of 40 animals. […] In the combination groups, both regimens were administered 3X a week for two-weeks at the same dose as a single therapy. Animals were imaged periodically and maintained until euthanization was required.
(§2) Fig. 5. […] A and B) RM1-BM-Luc (A) or PC3-ML-Luc (B) cells were implanted I.C. in C57BL/6 and athymic nude mice, respectively. […] BLI images were used to detect bone metastases (the percentage incidence of bone metastases in animals was calculated at a single time point, day 14). Values are presented at the bottom panel of the respective group (red, number of animals positive for metastasis and black, total number of experimental animals). C and D) Animals were kept until mandated euthanasia based on IACUC guidelines, considered as disease associated death. The Kaplan–Meier survival curves were generated using GraphPad in both models as described in (A) and (B), respectively. E and F) Log-rank test was performed and values between different experimental groups are presented.

RM1-BM-Luc cells = assay: Combination and survival study, RM1-BM-Luc syngeneic model; assay type: in vivo, C57BL/6 mice; conditions: RM1-BM-Luc in C57BL/6, day 14, IVMT-Rx-4 30 mg/kg and/or Docetaxel 5 mg/kg 3X a week for two weeks
Procedure: as §1, §2

PXR = target: T1, PXR (Homo sapiens, UniProt O75469); assay: PXR assay using DPX2 cells; assay type: cell-based
T1 construct: expressed in transfected cells; host or cells: DPX2 cells
T1 sequence (O75469 1-434): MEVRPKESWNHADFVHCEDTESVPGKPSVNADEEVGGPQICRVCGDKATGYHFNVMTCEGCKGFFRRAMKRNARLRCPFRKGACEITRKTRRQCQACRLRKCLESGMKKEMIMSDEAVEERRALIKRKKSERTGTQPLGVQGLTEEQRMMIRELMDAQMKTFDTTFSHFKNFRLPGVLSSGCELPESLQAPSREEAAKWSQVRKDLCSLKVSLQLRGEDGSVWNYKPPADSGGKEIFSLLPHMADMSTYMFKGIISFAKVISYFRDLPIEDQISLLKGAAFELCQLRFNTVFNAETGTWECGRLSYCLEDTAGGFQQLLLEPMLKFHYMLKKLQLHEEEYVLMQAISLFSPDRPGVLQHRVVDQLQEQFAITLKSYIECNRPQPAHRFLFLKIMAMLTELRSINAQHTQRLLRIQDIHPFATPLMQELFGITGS
Procedure: DPX2 cells were initially cultured in T-75 flasks and maintained at 37°C in a humidified incubator with 5% CO2 and 95% relative humidity. Cells were allowed to reach 70-80% confluence prior to subculture. Next, cells were transferred to a culture plate and incubated for an additional 24 hours to allow for attachment and recovery prior to treatment. […] Cell viability and luciferase activity were measured using the CellTiter-Fluor™ Cell Viability Assay and One-GloTM Luciferase Assay System, respectively. Luciferase activity was normalized to viable number and fold activation of PXR was calculated using the following equation: […]

[1] = Thermodynamic solubility in PBS, pH 7.4; assay type: physicochemical
[2] = system: HS5, RWPE-1, C4–2B, PC3-ML, ARCaP-M and RM1-BM cells; assay: Colony formation (clonal) assay; assay type: cell-based, human and murine; conditions: 50 μM, six repeated doses over a two-week period, tumor and non-tumor cells
Procedure: 200 cells/well were seeded in triplicate in 6-well plates. […] The colonies were fixed with ice-cold Methanol and stained with 0.5% crystal violet and counted.
Fig. 1. Primary characterization of IVMT-Rx-4. A) Chemical structure (upper panel) and synthesis scheme (lower panel). […] All proteins were extracted, and Western blotting was performed immediately after heating. Quantifications were obtained in the absence (control) or presence of IVMT-Rx-4 and values are presented as percentage of RT (room temperature) normalized for the experimental groups (control, IVMT-Rx-4). SOD (Superoxide dismutase) was used as an endogenous control. […] Colonies were stained with crystal violet and counted (n = 3 ± SD; ns: non-significant). […] Invaded cells were stained with crystal violet. Top panel: representative photograph of invaded cells under different experimental settings. Bottom panel: graphical representation of number of invaded cells/field for different cell lines (n = 3 ± SD; * p < 0.05).

[3] = Stability in liver microsomes with NADPH and UDPGA; assay type: in vitro ADME; conditions: all species (human, monkey, dog, rat, mouse), NADPH and UDPGA added
Procedure: Test samples were incubated at 37 °C, and Verapamil was used as a positive control. Samples were drawn from the incubation solution at different timepoints, centrifuged, then diluted with ultra-pure H20 and analyzed via LC-MS/MS. The natural logarithm of the remaining parent drug at each timepoint was plotted against incubation time, and the following equation was used to calculate the in vitro half-life:
in vitro t1/2 = -(0.693/k), where k is the rate constant.

Caco-2 cell monolayer = assay: Caco-2 bidirectional permeability; assay type: in vitro ADME
Procedure: To prepare the Caco-2 cell monolayer, 50 µL and 25 µL of cell culture medium (Dulbecco’s modified Eagle’s medium, DMEM) were added to each well of the inserts and reservoir, respectively, within a 96-well HTS Transwell plate (Corning, NY, USA). The plate was incubated at 37 °C and 5% CO2 for 1 hr. prior to cell seeding. Caco-2 cells were then diluted to 6.86 x 10^5 cells/mL using culture medium and 50 µL of cell suspension were seeded into the plate, and incubated at 37 °C, 5% CO2, and 95% relative humidity for 14-18 days. During this time, the cells were cultivated with media replacements occurring every other day. Cells were allowed to grow and differentiate and the integrity of the Caco-2 cell monolayer was evaluated by measurement of transepithelial electrical resistance (TEER) using a Millicell Epithelial Volt-Ohm measuring system (Millipore, USA).
Prior to the assay, the established monolayer was washed twice with pre-warmed HBSS and incubated at 37 °C for 30 minutes. A bidirectional permeability assay was performed simultaneously using two different plates as described previously (Supplementary Reference: Cui Y, Desevaux C, Truebenbach I, Sieger P, Klinder K, Long A, Sauer A. A Bidirectional Permeability Assay for beyond Rule of 5 Compounds. Pharmaceutics. 2021 Jul 27;13(8):1146. doi: 10.3390/pharmaceutics13081146. PMID: 34452112; PMCID: PMC8400635.): one assessed permeability from the apical to the basolateral side, while the other assessed from the basolateral to the apical side. […] For apical to basolateral permeability, 108 µL of working solution was loaded into the apical compartment, whereas 308 µL of working solution was added to the basolateral compartment for basolateral to apical permeability. The samples collected from donor and receiver compartment were mixed with 72 µL transport buffer and 240 µL of acetonitrile containing internal standard (IS, 100 nM alprazolam, 200 nM Caffeine and 100 nM tolbutamide), centrifuged at 1000 rpm for 10 minutes. […] In doing so, the following equations were used: […]
Where, Papp is apparent permeability (cm/s x 10^-6), dQ/dt is the rate of drug transport (pmol/second), A is the surface area of the membrane (cm^2), and D0 is the initial donor concentration (nM; pmol/cm^3). (B-A) indicates basolateral to apical permeation, where (A-B) indicates apical to basolateral.

[4] = Log D by shake flask (pH 7.4); assay type: physicochemical; conditions: pH 7.4, octanol/phosphate buffer
Procedure: Sodium Phosphate buffer pH 7.4 (10 mM) was used as the aqueous phase and octanol was used as the organic phase. […] The sealed plate was incubated at 25 °C with continuous agitation at 2000 rpm for 2 hrs. Samples were then separated by centrifugation, diluted 100-fold with a mixture of H20 and acetonitrile containing internal standard, and analyzed via LC-MS/MS. The Log D value was calculated using the following equation: […]

CYP3A4 = target: T2, CYP3A4 (Homo sapiens, UniProt P08684); assay: Time dependent CYP inhibition (TDI); assay type: in vitro ADME; conditions: human liver microsomes, with or without NADPH
T2 construct: in the presence of human liver microsomes; from tissue; host or cells: human liver microsomes
T2 sequence (P08684 whole entry): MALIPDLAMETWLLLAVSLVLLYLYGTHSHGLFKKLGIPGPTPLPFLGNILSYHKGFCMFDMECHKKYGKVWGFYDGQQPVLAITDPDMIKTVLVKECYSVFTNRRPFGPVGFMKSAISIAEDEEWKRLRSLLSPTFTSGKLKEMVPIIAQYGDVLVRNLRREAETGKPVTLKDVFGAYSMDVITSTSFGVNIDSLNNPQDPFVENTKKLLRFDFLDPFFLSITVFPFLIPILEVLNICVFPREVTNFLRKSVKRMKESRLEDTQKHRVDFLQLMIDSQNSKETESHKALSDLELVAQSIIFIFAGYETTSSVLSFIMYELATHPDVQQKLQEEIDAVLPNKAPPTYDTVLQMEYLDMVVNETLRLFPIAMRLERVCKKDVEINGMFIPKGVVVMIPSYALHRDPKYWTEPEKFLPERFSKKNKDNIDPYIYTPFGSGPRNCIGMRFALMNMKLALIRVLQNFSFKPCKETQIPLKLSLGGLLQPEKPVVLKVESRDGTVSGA
Procedure: Then, the specific CYP3A4 substrate was added, and aliquots were collected at various time points. Samples were then diluted with ultra-pure water and analyzed by LC-MS/MS. Area ratio and remaining Activity (%) were calculated as above and IC50 values was calculated using Excel XLfit 5.3.1.3.

[5] = system: Salmonella typhimurium TA98 & TA100; assay: Mini-Ames assay; assay type: cell-based
Procedure: The mini-AMES assay was performed in Pharmaron, Inc. following the standard protocol as developed by the in-house scientist. […] The assay was conducted in the presence or absence of the S9 mix along with concurrent negative/solvent control and positive controls.

Structure (SMILES)	bone metastases, Incident/Total number tested (PC3-ML-Luc cells)	bone metastases, Incident/Total number tested (RM1-BM-Luc cells)	PXR assay (PXR)	Thermodynamic solubility in PBS, pH 7.4 [1]	cell proliferation (colony formation) [2]	t½ in liver microsomes [3]	Caco-2 Efflux ratio (Caco-2 cell monolayer; B-A/A-B)	Caco-2 Bidirectional A-B (Caco-2 cell monolayer; apical to basolateral, 10 µM)	Caco-2 Bidirectional B-A (Caco-2 cell monolayer; basolateral to apical, 10 µM)	Log D by shake flask (pH 7.4) [4]	Time-dependent inhibition (TDI), CYP3A4 (CYP3A4)	Mini-Ames Assay (2-strain option: TA98 & TA100) [5]
CC(=O)O[C@@]12CO[C@@H]1C[C@H](O)[C@@]1(C)C(=O)[C@H](O)C3=C(C)[C@@H](OC(=O)[C@H](O)[C@@H](NC(=O)OC(C)(C)C)c4ccccc4)C[C@@](O)([C@@H](OC(=O)c4ccccc4)[C@H]21)C3(C)C [Docetaxel, reference compound]	3/8	5/8										
Cc1cc(NC(=O)c2nc3nc4c(c(=O)n3[nH]2)CCC4)c(C)cc1NC(=O)CCc1nnc(-c2ccccc2)o1 [PDZ1i, reference compound]			No induction	10 mg/ML	did not inhibit cell proliferation	Minimal degradation: > 4 hr t½ in all species	300	0.04 ×10⁻⁶ cm/s	11.5 ×10⁻⁶ cm/s	0.5	No TDI	Negative
